This passage reports TGI results from PubChem BioAssay (NCI).

Structures are written as SMILES.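 Test compounds were applied to cells in 96-well plates for 48 hours at 5 doses. TGI: total growth inhibition.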 A value given as a limit tells only on which side of the number the result lay.

The subject of the first experiment is EKVX NSCLC. Nature of the experiment: NCI anticancer screen, dose series, 48 h.
Regarding `N#CC(C#N)=CNC(N)=S`, the TGI was above 100 µM.
Molecule `N=Nc1c(OC(=O)Nc2cccc(Cl)c2)[nH]c2ccccc12` showed a TGI of 16.8 µM.

The subject of the next experiment is A498 renal. Nature of the experiment: NCI anticancer screen, dose series, 48 h.
Molecule `COC1=CC(=O)C(C2CC(=O)c3c(O)cc(O)cc3O2)=CC1=O` (stereo not drawn) yielded a TGI above 58 µM.
Same read-out and setting: with `N=C(N)SCc1ccc2c(c1)Sc1ccccc1O2` the figure was 52.3 µM; with `N#CC(C#N)=CNC(N)=S`, above 100 µM.
Regarding `N=Nc1c(OC(=O)Nc2cccc(Cl)c2)[nH]c2ccccc12`, the TGI came to 26.1 µM.

For a further experiment, the system named is T-47D breast. As to the kind of experiment: NCI anticancer screen, dose series, 48 h.
As to `COC1=CC(=O)C(C2CC(=O)c3c(O)cc(O)cc3O2)=CC1=O` (stereo not drawn), the TGI was 42.7 µM.
Still for that read-out and setting: with `N=C(N)SCc1ccc2c(c1)Sc1ccccc1O2` the figure was 43 µM; with `N#CC(C#N)=CNC(N)=S`, above 100 µM.
Still for that read-out and setting: with `N=Nc1c(OC(=O)Nc2cccc(Cl)c2)[nH]c2ccccc12` the figure was 7.34 µM.

Another experiment deals with NCI-H460 lung. As to the kind of experiment: NCI anticancer screen, dose series, 48 h.
The molecule `COC1=CC(=O)C(C2CC(=O)c3c(O)cc(O)cc3O2)=CC1=O` (stereo not drawn) showed a TGI of 51.8 µM.
Molecule `N=C(N)SCc1ccc2c(c1)Sc1ccccc1O2` displayed a TGI of 21.5 µM.
In turn, `N#CC(C#N)=CNC(N)=S` had a TGI above 100 µM.
Turning to `N=Nc1c(OC(=O)Nc2cccc(Cl)c2)[nH]c2ccccc12`, the TGI worked out at 20 µM.

A further experiment relates to NCI/ADR-RES ovarian. As to the kind of experiment: NCI anticancer screen, dose series, 48 h.
Regarding `COC1=CC(=O)C(C2CC(=O)c3c(O)cc(O)cc3O2)=CC1=O` (stereo not drawn), the TGI was determined as 46.5 µM.
`N=C(N)SCc1ccc2c(c1)Sc1ccccc1O2`: the TGI was determined as 34.6 µM.
For `N#CC(C#N)=CNC(N)=S`, the TGI is above 100 µM.
Molecule `N=Nc1c(OC(=O)Nc2cccc(Cl)c2)[nH]c2ccccc12` showed a TGI of 21.4 µM.

For a further experiment, the system named is SNB-19 CNS. Nature of the experiment: NCI anticancer screen, dose series, 48 h.
For the molecule `COC1=CC(=O)C(C2CC(=O)c3c(O)cc(O)cc3O2)=CC1=O` (stereo not drawn), the TGI came to 68.2 µM.
On the same count and under the same terms, with `N=C(N)SCc1ccc2c(c1)Sc1ccccc1O2` the figure was 30.6 µM; with `N#CC(C#N)=CNC(N)=S`, above 100 µM.
`N=Nc1c(OC(=O)Nc2cccc(Cl)c2)[nH]c2ccccc12` had a TGI of 18.5 µM.

Another experiment deals with 786-0 renal. As to the kind of experiment: NCI anticancer screen, dose series, 48 h.
`COC1=CC(=O)C(C2CC(=O)c3c(O)cc(O)cc3O2)=CC1=O` (stereo not drawn) gave a TGI of 31.7 µM.
`N=C(N)SCc1ccc2c(c1)Sc1ccccc1O2` displayed a TGI of 24.6 µM.
Same read-out and setting: with `N#CC(C#N)=CNC(N)=S` the figure was above 100 µM; with `N=Nc1c(OC(=O)Nc2cccc(Cl)c2)[nH]c2ccccc12`, 18.2 µM.

For a further experiment, the system named is UACC-257 melanoma. Nature of the experiment: NCI anticancer screen, dose series, 48 h.
Turning to `COC1=CC(=O)C(C2CC(=O)c3c(O)cc(O)cc3O2)=CC1=O` (stereo not drawn), the TGI was 34.9 µM.
On the same count and under the same terms, for `N=C(N)SCc1ccc2c(c1)Sc1ccccc1O2` the value was 14.2 µM.
`N#CC(C#N)=CNC(N)=S` showed a TGI above 100 µM.
On the same count and under the same terms, for `N=Nc1c(OC(=O)Nc2cccc(Cl)c2)[nH]c2ccccc12` the value was 26.7 µM.

In a further experiment the test system is NCI-H226 lung. As to the kind of experiment: NCI anticancer screen, dose series, 48 h.
For the molecule `COC1=CC(=O)C(C2CC(=O)c3c(O)cc(O)cc3O2)=CC1=O` (stereo not drawn), the TGI came to 40.4 µM.
As for `N=C(N)SCc1ccc2c(c1)Sc1ccccc1O2`, the TGI is 31.1 µM.
Still for that read-out and setting: for `N#CC(C#N)=CNC(N)=S` the value was above 100 µM; for `N=Nc1c(OC(=O)Nc2cccc(Cl)c2)[nH]c2ccccc12`, 34.5 µM.

The next experiment concerns LOX IMVI melanoma. Nature of the experiment: NCI anticancer screen, dose series, 48 h.
As for `COC1=CC(=O)C(C2CC(=O)c3c(O)cc(O)cc3O2)=CC1=O` (stereo not drawn), the TGI was determined as 30.9 µM.
The same measure, in the same setting: with `N=C(N)SCc1ccc2c(c1)Sc1ccccc1O2` the figure was 60.4 µM; with `N#CC(C#N)=CNC(N)=S`, above 100 µM; with `N=Nc1c(OC(=O)Nc2cccc(Cl)c2)[nH]c2ccccc12`, 20.8 µM.

The test system of another experiment is SN12C renal. Nature of the experiment: NCI anticancer screen, dose series, 48 h.
With `COC1=CC(=O)C(C2CC(=O)c3c(O)cc(O)cc3O2)=CC1=O` (stereo not drawn), the TGI worked out at 37.4 µM.
`N=C(N)SCc1ccc2c(c1)Sc1ccccc1O2` gave a TGI of 46.9 µM.
Still for that read-out and setting: for `N#CC(C#N)=CNC(N)=S` the value was above 100 µM; for `N=Nc1c(OC(=O)Nc2cccc(Cl)c2)[nH]c2ccccc12`, 14.8 µM.

In another experiment the test system is HCC-2998 colon. Nature of the experiment: NCI anticancer screen, dose series, 48 h.
With `COC1=CC(=O)C(C2CC(=O)c3c(O)cc(O)cc3O2)=CC1=O` (stereo not drawn), the TGI was 32.1 µM.
With `N=C(N)SCc1ccc2c(c1)Sc1ccccc1O2`, the TGI came out at 6.89 µM.
On the same count and under the same terms, for `N#CC(C#N)=CNC(N)=S` the value was above 100 µM.
`N=Nc1c(OC(=O)Nc2cccc(Cl)c2)[nH]c2ccccc12` showed a TGI of 17.5 µM.

The next experiment has as its system SF-268 CNS. Nature of the experiment: NCI anticancer screen, dose series, 48 h.
In turn, `COC1=CC(=O)C(C2CC(=O)c3c(O)cc(O)cc3O2)=CC1=O` (stereo not drawn) gave a TGI of 38.7 µM.
Still for that read-out and setting: with `N=C(N)SCc1ccc2c(c1)Sc1ccccc1O2` the figure was 27.8 µM.
Molecule `N#CC(C#N)=CNC(N)=S` returned a TGI above 100 µM.
The same measure, in the same setting: with `N=Nc1c(OC(=O)Nc2cccc(Cl)c2)[nH]c2ccccc12` the figure was 27.9 µM.

In another experiment the test system is NCI-H522 lung. As to the kind of experiment: NCI anticancer screen, dose series, 48 h.
Regarding `COC1=CC(=O)C(C2CC(=O)c3c(O)cc(O)cc3O2)=CC1=O` (stereo not drawn), the TGI was 30.8 µM.
The same measure, in the same setting: with `N=C(N)SCc1ccc2c(c1)Sc1ccccc1O2` the figure was 3.09 µM.
Same read-out and setting: with `N#CC(C#N)=CNC(N)=S` the figure was above 100 µM; with `N=Nc1c(OC(=O)Nc2cccc(Cl)c2)[nH]c2ccccc12`, 11.3 µM.

The next experiment has as its system MDA-MB-231 breast. As to the kind of experiment: NCI anticancer screen, dose series, 48 h.
Take `COC1=CC(=O)C(C2CC(=O)c3c(O)cc(O)cc3O2)=CC1=O` (stereo not drawn): the TGI amounted to 29.1 µM.
The same measure, in the same setting: for `N=C(N)SCc1ccc2c(c1)Sc1ccccc1O2` the value was 45.2 µM; for `N#CC(C#N)=CNC(N)=S`, above 100 µM; for `N=Nc1c(OC(=O)Nc2cccc(Cl)c2)[nH]c2ccccc12`, 26.7 µM.
